According to patent publication US4119710A, “Bronchospasmolytic 1-(p-amino-phenyl)-2-amino-ethanols-(1) and salts” (Boehringer Ingelheim GmbH, priority 1972, dated 1978):
Structures can show the parent of a compound that is named as a salt. Where two headings read alike, the source gives them in different places.

Experiments:
β2 -receptors [1] = molecular target: T1, β2 -receptors (Cavia porcellus, UniProt Q8K4Z4); test: β2-blocking activity: antagonism to broncholytic activity of N-isopropyl-noradrenalin sulfate in anesthetized guinea pigs (Konzett-Rossler); assay type: in vivo; conditions: guinea pig, iv, d(+)-isomers, 5 γ/kg i.v. N-isopropyl-noradrenalin sulfate after 20 γ/kg i.v. acetylcholine (Table III), read-out: Blocking Action on β2 -receptors ED50
T1 construct: tested on anesthetized guinea pigs; from tissue; host or cells: living anesthetized guinea pig, airways (Konzett-Rossler)
Protocol: (§1) The compounds of this invention were tested for toxicity and with regard to their action on the β-receptors in warm-blooded animals, such as cats and guinea pigs, by the methods described below, and the following test results were obtained for representative species of the genus, where
The β2 -blocking activity was tested on anesthetized guinea pigs as antagonism to the broncholytic activity which is observed upon administration of 5 γ/kg body weight i.v. of N-isopropyl-noradrenalin sulfate in the test arrangement according to Konzett-Rossler, following the inducement of a bronchospasm caused by a standard dose of 20 γ/kg body weight i.v. of acetylcholine (see Table III).

[2] = acute toxicity in mice (LD50, Litchfield and Wilcoxon); conditions: mouse, in vivo, iv, groups of 10, i.v.
Protocol: as §1
The acute toxicity of the compounds was determined on groups of 10 mice.

β1 -receptors = molecular target: T2, β1 -receptors (Felis catus, UniProt Q9TST6); test: β1-blocking activity: antagonism to tachycardia provoked by N-isopropyl-noradrenalin sulfate in anesthetized cats; assay type: in vivo; conditions: cat, iv
T2 construct: tested on anesthetized cats; from tissue; host or cells: living anesthetized cat, heart (heart rate)
Protocol: as §1
The β1 -blocking activity was tested on anesthetized cats as antagonism to tachycardia provoked by a standard dose of 1.0 γ/kg i.v. of N-isopropyl-noradrenalin sulfate. From the average percentage reduction in heart rate acceleration caused by N-isopropyl-noradrenalin sulfate, obtained by various doses of the test compound in question, a median effective dose (ED50) was determined by graphic extrapolation (see Tables II and III).

β2 -receptors [3] = molecular target: T1, β2 -receptors; test: β2-mimetic activity: antagonism to acetylcholine bronchospasm in anesthetized guinea pigs (Konzett-Rossler); assay type: in vivo
Protocol: as §1
The β2 -mimetic activity was tested on anesthetized guinea pigs as antagonism to bronchospasm provoked by intravenous administration of 20 γ of acetylcholine per kg body weight (according to the method of Konzett-Rossler) by intravenous administration of the test compound. From the average percentage decrease of the bronchospasm produced by various doses of the test compound, a median effective dose (ED50) was determined by graphic extrapolation (see Table I).

[4] = deaths within 14 days, d(+)-isomers (Table III), read-out: acute toxicity LD50 (Table III)
[5] = d(+)-isomers, tachycardia by 1.0 γ/kg i.v. N-isopropyl-noradrenalin sulfate (Table III), read-out: Blocking Action on β1 -receptors ED50

T1 sequence (Q8K4Z4 whole entry): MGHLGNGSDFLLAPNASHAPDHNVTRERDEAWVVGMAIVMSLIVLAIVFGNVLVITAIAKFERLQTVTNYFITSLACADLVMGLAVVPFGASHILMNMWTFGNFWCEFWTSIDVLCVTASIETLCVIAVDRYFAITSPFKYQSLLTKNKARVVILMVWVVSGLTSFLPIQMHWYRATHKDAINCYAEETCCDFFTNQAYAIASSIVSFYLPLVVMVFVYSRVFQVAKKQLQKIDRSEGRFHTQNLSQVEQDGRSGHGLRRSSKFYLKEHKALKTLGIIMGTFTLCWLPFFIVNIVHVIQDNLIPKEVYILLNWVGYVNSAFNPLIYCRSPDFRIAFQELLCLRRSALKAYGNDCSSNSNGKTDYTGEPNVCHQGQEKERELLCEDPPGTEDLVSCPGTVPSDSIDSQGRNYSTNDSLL
T2 sequence (Q9TST6 whole entry): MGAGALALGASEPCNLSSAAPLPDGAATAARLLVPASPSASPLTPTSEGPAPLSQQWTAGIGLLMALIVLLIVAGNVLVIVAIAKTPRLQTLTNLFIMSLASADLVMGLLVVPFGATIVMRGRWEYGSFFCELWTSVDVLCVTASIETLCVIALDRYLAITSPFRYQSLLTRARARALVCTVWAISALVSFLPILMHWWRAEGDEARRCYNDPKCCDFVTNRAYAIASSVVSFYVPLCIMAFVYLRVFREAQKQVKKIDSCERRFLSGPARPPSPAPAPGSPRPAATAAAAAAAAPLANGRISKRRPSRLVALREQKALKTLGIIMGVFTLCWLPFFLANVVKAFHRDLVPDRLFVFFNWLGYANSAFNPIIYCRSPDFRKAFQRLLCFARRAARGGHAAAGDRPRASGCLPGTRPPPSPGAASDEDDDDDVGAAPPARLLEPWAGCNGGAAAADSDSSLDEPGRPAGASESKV

Compound | ED50 (β2 -receptors [1]) | LD50 at 336 h [2, 4] | ED50 (β1 -receptors; [5]) | ED50 (β2 -receptors [3]; guinea pig, iv, bronchospasm by 20 γ/kg acetylcholine i.v., test compound i.v., graphic extrapolation (Table I)) | Duration of activity (β2 -mimetic activity) (β2 -receptors [3]; i.v. (Table I)) | LD50 at 336 h ([2]; deaths within 14 days (Table II), read-out: LD50) | ED50 (β1 -receptors; tachycardia by 1.0 γ/kg i.v. N-isopropyl-noradrenalin sulfate, graphic extrapolation (Table II), read-out: Blocking action on the β1 -receptors ED50)
CC(C)(C)NCC(O)c1cc(F)c(N)c(Br)c1 (single isomer, unassigned) [A-d(+), d-1-(4'-amino-3'-bromo-5'-fluoro-phenyl)-2-tert.butylamino-ethanol hydrochloride] | > 2 mg/kg | 37.2 mg/kg | 0.0084 mg/kg |  |  |  | 
CC(C)(C)NCC(O)c1ccc(N)c(F)c1 (single isomer, unassigned) [E-d(+), d-1-(4'-amino-3'-fluoro-phenyl)-2-tert.butylamino-ethanol hydrochloride] | > 2 mg/kg |  | 0.0015 mg/kg |  |  |  | 
CC(C)(C)NCC(O)c1cc(F)c(N)c(Cl)c1 (single isomer, unassigned) [D-d(+), d-1-(4'-Amino-3'-chloro-5'-fluoro-phenyl)-2-tert.butylamino-ethanol] | > 2 mg/kg | 34.2 mg/kg | 0.0062 mg/kg |  |  |  | 
CC(C)(C)NCC(O)c1cc(Cl)c(N)c(C(F)(F)F)c1 (single isomer, unassigned) [G-d(+), d-1-(4'-Amino-3'-chloro-5'-trifluoromethyl-phenyl)-2-tert.butylamino-ethanol] | > 2 mg/kg | 33.2 mg/kg | 0.0125 mg/kg |  |  |  | 
CC(C)(C)NCC(O)c1cc(Cl)c(N)c(C(F)(F)F)c1 (stereo not drawn) [G, 1-(4'-amino-3'-chloro-5'-trifluoromethyl-phenyl)-2-tert.butylamino-ethanolhydrochloride] |  |  |  | 0.0195 mg/kg | > 130 min | 36.5 mg/kg | 0.0115 mg/kg
